This is an account of results in US7592353B2, “Substituted 3-amino-thieno[2,3-b]pyridine-2-carboxylic acid amide compounds and processes for preparing and their uses” (Boehringer Ingelheim International GmbH, priority 2006, dated 2009).

Each structure is given as a SMILES string.

Broadly, the IC50 is the concentration at which inhibition is half-maximal.

A short description of data set [1]: Rat oral exposure (plasma exposure upon oral administration). The data set is classed as in vivo. The note with it: for concentration at 2 h / concentration at 6 h / concentration at 10 h: plasma, rat, oral, 10 mg/kg; for concentration at 2 h: read-out: Rat oral exposure (μM) @ 10 mg/kg dose 2h; for concentration at 6 h: read-out: Rat oral exposure (μM) @ 10 mg/kg dose 6h; for concentration at 10 h: read-out: Rat oral exposure (μM) @ 10 mg/kg dose 10h.

A further data set has as its target T1, human IKKβ (Homo sapiens, UniProt O14920).
T1 construct: FLAG (N)
T1 sequence (O14920 1-756): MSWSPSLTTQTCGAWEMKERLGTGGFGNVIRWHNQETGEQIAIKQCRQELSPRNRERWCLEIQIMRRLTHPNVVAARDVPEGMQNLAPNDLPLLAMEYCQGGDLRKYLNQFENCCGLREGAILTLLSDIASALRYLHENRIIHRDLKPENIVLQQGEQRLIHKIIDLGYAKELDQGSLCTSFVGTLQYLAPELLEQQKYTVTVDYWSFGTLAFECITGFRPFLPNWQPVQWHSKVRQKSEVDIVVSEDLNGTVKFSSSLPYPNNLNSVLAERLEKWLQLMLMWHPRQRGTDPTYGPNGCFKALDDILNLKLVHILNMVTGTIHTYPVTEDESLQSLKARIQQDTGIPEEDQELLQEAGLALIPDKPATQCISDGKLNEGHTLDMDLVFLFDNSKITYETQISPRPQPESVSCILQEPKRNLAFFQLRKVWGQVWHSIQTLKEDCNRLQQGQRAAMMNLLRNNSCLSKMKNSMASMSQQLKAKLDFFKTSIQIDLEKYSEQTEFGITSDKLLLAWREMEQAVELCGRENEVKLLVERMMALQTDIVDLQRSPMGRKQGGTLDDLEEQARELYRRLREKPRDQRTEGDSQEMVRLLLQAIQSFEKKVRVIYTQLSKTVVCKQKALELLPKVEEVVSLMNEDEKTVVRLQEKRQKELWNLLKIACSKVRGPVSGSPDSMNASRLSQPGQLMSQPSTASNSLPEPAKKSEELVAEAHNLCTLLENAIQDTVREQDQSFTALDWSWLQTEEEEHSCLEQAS
As to the kind of experiment: Molecular assay IKKb: phosphorylation of IκBα substrate by IKKβ. The data set is classed as biochemical. Here is the method:
The inhibition of IKKα and IKKβ by the compounds of the present invention can be determined with the following assay that measures the phosphorylation of the IκBα substrate by the respective kinases. The enzymes used in the assay were N-terminally flag-tagged versions of the human IKKβ or IKKα and the substrate was a GST fusion protein with IκBα (amino acids 1-54).
The reaction mixtures (60 μl) contained 20 mM HEPES pH 7.5, 10 mM MgCl2, 2 mM MnCl2, 100 mM NaCl, 100 μM Na3VO4, 20 mM β-glycerophosphate, 1 mM DTT, 2% DMSO, 250 nM ATP, 0.4 nM [^33P]ATP (specific activity, 3000 Ci/mmol), IκBα substrate, IKK enzyme and test compound. The reaction mixtures contained either 3.6 μg/ml IKKα and 245 μg/ml IκBα or 0.9 μg/ml IKKβ and 53 μg/ml IκBα.
Reactions were initiated by adding a solution of IκBα substrate and ATP to polypropylene plates containing IKK enzyme that was pre-incubated for 5 minutes with test compound. Then the reaction mixtures were incubated for 1 hour at 25° C., placed on ice and quenched by the addition of 150 μl 10% trichloroacetic acid and 5% disodium pyrophosphate. After mixing, the entire contents of the quenched reaction mixtures were transferred to a pre-wetted Packard UniFilter filtration plate, aspirated and washed 6 times with 250 μl of ddH2O using the Packard Filtermate Harvester. Filtration plates were then air dried, supplemented with 40 μl of Microscint 20 scintillation fluid and the ^33P-labeled reaction products were quantified using the Packard TopCount scintillation counter.
Compounds were tested in three-fold serial dilutions and inhibitor concentrations to achieve 50% inhibition of enzyme activity (i.e., IC50) were derived from dose-response curves using SAS software (SAS Institute, Cary N.C.). A non-linear regression analysis based on the Hill equation was applied to the percent inhibition versus concentration data. In all cases, compound concentrations were verified by HPLC.

Data set [2] relates to ICAM-1 Expression on HeLa Cells. As to the kind of experiment: Cell assay HeLa: ELISA of TNFα-stimulated ICAM-1 expression on HeLa cells. The class given is cell-based. The note with it: for IC50: Homo sapiens, HeLa cells, TNFα stimulation, ICAM-1 expression; for cellular potency relative to the —CF3 group of compound 101: comparison in words, Table II. As to the method: HeLa cells are seeded on 96 well tissue culture treated plates (Costar) in complete medium comprised of 10% decomplemented fetal bovine serum in RPMI1640 with gentamycin and L-glutamine and grown overnight to confluence. The following day, the media is changed and the wells are treated with test compounds. 10 mM DMSO stock solutions of compounds are serially diluted with 0.1% DMSO (final concentration)-screening media to 5 final concentrations (starting at 10 μM). Compounds are pre-incubated with cells for 30 min followed by stimulation with TNFα (R&D Systems) for 5-6 hr. The adherent cells are then assayed for expression of intercellular adhesion molecule-1 (ICAM-1). Monolayers are washed three times with D-PBS (Gibco) and fixed for 10 min at room temperature with 1% paraformaldehyde (Polysciences, Inc) diluted in D-PBS. After washing to remove fixative, the monolayers are blocked with 2% BSA-D-PBS overnight at 4° C. 100 μL of anti-ICAM-1 mAB RR1-HRP (diluted 1:5000 in 2% BSA-DPBS; Zymed custom conjugate of BIPI mAB) is added for 1 hr at 37° C. Wells are washed three times with D-PBS. 100 μL of ABTS substrate diluted in substrate buffer (Zymed) is added to each well. Optical absorbance is measured at 405 nm in a Thermomax microplate reader ([…]). Data is plotted as percent of control and IC50s are determined using xlfit 4 model # 201.

Data set [3] concerns established type II collagen arthritis in rats. As to the kind of experiment: Rat CIA model (7 day rat established type II collagen arthritis). The data set is classed as in vivo. An excerpt: Effects of Compounds in 7 Day Rat Established Type II Collagen Arthritis
Purpose: To determine the dose responsive efficacy of compounds administered by oral gavage dosing bid in inhibiting the inflammation, cartilage destruction and bone resorption of established type II collagen arthritis in rats. The terminal pharmacokinetic component is included.
Animals: 36 (Order 42) Female Lewis rats (Harlan, 1173000), weighing 125-150 g on arrival. Extras are used because animals with arthritis are selected and there is not 100% incidence of disease in this model in the short time frame for enrollment (inject 42 with collagen to get […] solid responders on days 10, 11 for 4 groups of 8. Four rats are used to serve as normal controls.
Materials: Agents or drugs in vehicle (Cremaphor), Type II collagen, Freund's incomplete adjuvant.
General Study Design: Animals (8/group for arthritis, 4/group for normal control), housed 4/cage, are acclimated for 4-8 days.
Acclimated animals are anesthetized with Isoflurane and given collagen injections (day 0). […]
Statistical analysis of body/paw weights and paw AUC and histopathology parameters are evaluated using a one-way analysis of variance (ANOVA). […]
Percent inhibition of paw weight and AUC is calculated using the following formula: % Inhibition=A−B/A×100 A=Mean Disease Control−Mean Normal B=Mean Treated−Mean Normal

On to `CCCc1cc(N2CCC(S(C)(=O)=O)CC2)nc2sc(C(N)=O)c(N)c12` [Compound 100, reference compound], for which, in data set [1], the concentration at 2 h came out at 0.21 µM, the concentration at 6 h worked out at 0.12 µM and the concentration at 10 h is 0.08 µM. This compound also returned a half-maximal inhibitory concentration (IC50) on human IKKβ of 78 nM. In addition, in data set [2], the IC50 was found to be 720 nM and the “cellular potency relative to the —CF3 group of compound 101” value was “improved cellular potency”.

`CS(=O)(=O)C1CCN(c2cc(C(F)(F)F)c3c(N)c(C(N)=O)sc3n2)CC1` [Compound 101]: the IC50 was 120 nM on human IKKβ and 3200 nM in data set [2].

Regarding `CCC(F)(F)c1cc(N2CCC(S(C)(=O)=O)CC2)nc2sc(C(N)=O)c(N)c12` [Compound 115, 3-Amino-4-(1,1-difluoro-propyl)-6-(4-methanesulfonyl-piperidin-1-yl)-thieno[2,3-b]pyridine-2-carboxylic acid amide], the “level of sustained plasma exposure upon oral administration to rat, versus Compound 100” value in data set [1] (comparison in words, Table II) was “improved level of sustained plasma exposure”. In addition, in data set [1], the concentration at 2 h is 1.59 µM, the concentration at 6 h amounted to 0.78 µM and the concentration at 10 h was 0.65 µM. This compound also showed a concentration for half-maximal inhibition (IC50) at human IKKβ of 26 nM. In data set [2], the IC50 is 700 nM and the “cellular potency relative to the —CF3 group of compound 101” value is given as “improved cellular potency”. For the same compound, the “oral activity in a rat model of collagen induced arthritis” value in data set [3] (comparison in words, Table III) is “superior oral activity”. In addition, the “Inhibition of paw weight increase” value in data set [3] (rat CIA, oral, 10 mg/kg BID) is given as 44%.
